Source: patent US6872850B2, “Small molecule inhibitors of secretion of proteins encoded by ARE-mRNAs” (Message Pharmaceuticals, priority 2001, dated 2005)
Structures can show the parent of a compound that is named as a salt.

Assays:
3′ UTR of the TNFα gene = experiment: cell-based luciferase reporter assay, 5B cell line (luciferase gene with entire 3′ UTR of the TNFα gene); set-up: species or system mouse; settings: for Luciferase 5B (% of DMSO control): 1 h, then LPS, 5B cell line
Protocol: (§1) The candidate compounds were tested in a high-throughput, cell-based luciferase reporter assay. For this assay, a commercially available mouse macrophage Raw 264.7 cell line was stably transfected with a construct containing the CMV promoter operably linked to the luciferase gene which was modified using standard molecular biology techniques to contain the entire 3′ UTR of the TNFα gene. This 3′ UTR is important for the stability and translation of TNFα in cells. To control for effects of candidate compounds that are not specific for TNFα, a control cell line, called “3B,” was generated by stably transfecting the 264.7 cell line with a commercially available construct containing the luciferase gene (without the addition of the heterologous 3′ UTR of the TNFα gene) under the regulation of the CMV promoter.
[…] Then, lipopolysaccharide (LPS) was added to stimulate TNFα secretion. Luciferase activity was measured by determining the luminescence intensity due to the reaction of lucifern, ATP, Mg^2+, and molecular O2 (see, for example, Ausubel et al., supra). The luciferase activity in a cell incubated with a candidate compound was reported as a percentage of the luciferase activity for the corresponding cell incubated with DMSO vehicle only.
After correction for any effect caused by the administration of the DMSO only vehicle control, the effect of a candidate compound on luciferase activity in the 3B control cell line represents the global effect of the compound on any step required for expression or activity of luciferase protein, such as luciferase gene transcription, mRNA processing, mRNA stability, translation, protein stability, or enzymatic activity. […] In this case, the luciferase activity in the 5B cell line treated with the DMSO vehicle control is similar to the luciferase activity in the control 3B cell line treated with the candidate compound. Thus, the response of the 5B cell line (as a percent of the DMSO control) and the ratio of the luciferase activity in the 5B cell line (as a percent of the DMSO control) to the luciferase activity in the control 3B cell line (as a percent of the DMSO control) are similar. In desirable embodiments, the response of the 5B cell line and the 5B/3B ratio differ by less than 50, 40, 30, 20, 10, or 5%.

TNFα = experiment: ELISA of TNFα secreted into the media after LPS; type: cell-based
Protocol: The ability of candidate compounds to reduce the amount of secreted TNFα was also directly tested using an ELISA assay. […] A standard ELISA analysis was used to measure the amount of TNFα secreted into the media (see, for example, Ausubel et al., supra). The effect of a candidate compound on TNFα secretion in this assay is reported in the following tables as a percentage of the amount of TNFα secreted by a control cell that was administered a DMSO vehicle control only.

[1] = tested on: control cell line 3B (Raw 264.7, CMV-luciferase); experiment: luciferase reporter assay, control 3B cell line (luciferase without 3′ UTR of TNFα); type: cell-based, mouse
Protocol: as §1
Both the 3B and 5B cell lines were incubated in the presence of 10 μM of a candidate compound for one hour. Then, lipopolysaccharide (LPS) was added to stimulate TNFα secretion. Luciferase activity was measured by determining the luminescence intensity due to the reaction of lucifern, ATP, Mg^2+, and molecular O2 (see, for example, Ausubel et al., supra). The luciferase activity in a cell incubated with a candidate compound was reported as a percentage of the luciferase activity for the corresponding cell incubated with DMSO vehicle only. […]

[2] = 10 μM compound, ratio of 5B to control 3B cell line

Row | SMILES | Luciferase 5B (% of DMSO control) (3′ UTR of the TNFα gene; 10 μM compound) | Luciferase 5B/3B (% of DMSO control 5B)/(% of DMSO control 3B) (3′ UTR of the TNFα gene; [2]) | TNFα Secretion (% of DMSO control) (TNFα; 10 μM compound, 1 h, then LPS) | other results
1 | C/C(=N\N=C(N)N)c1cccc(C(=O)NCCNC(=O)[C@H](Cc2ccccc2)NC(=O)c2ccc(/C(=N\N=C(N)N)c3ccccc3)cc2)c1.O=C(O)C(F)(F)F.O=C(O)C(F)(F)F [MES 10092, (1-Z,4-E)-Bisguanylhydrazone of 1-[(S)-N-(4-benzoylbenzoyl)-2-amino-3-phenylpropanoyl]-4-(3-acetylbenzoyl)-1,4-diazabutane bis trifluoroacetate] |  |  |  | Luciferase 5B/3B (% of DMSO control 5B)/(% of DMSO control 3B) (3′ UTR of the TNFα gene; 1 μM compound (Table 11)): 100 (% of DMSO control 5B)/(% of D; Luciferase 5B/3B (% of DMSO control 5B)/(% of DMSO control 3B) (3′ UTR of the TNFα gene; 3 μM compound (Table 11)): 78 (% of DMSO control 5B)/(% of D; Luciferase 5B/3B (% of DMSO control 5B)/(% of DMSO control 3B) (3′ UTR of the TNFα gene; 10 μM compound (Table 11)): 69 (% of DMSO control 5B)/(% of D; TNFα Secretion (% of DMSO control) (TNFα; 1 μM compound (Table 11)): 108 % of DM80 control; TNFα Secretion (% of DMSO control) (TNFα; 3 μM compound (Table 11)): 81 % of DM80 control; TNFα Secretion (% of DMSO control) (TNFα; 10 μM compound (Table 11)): 107 % of DM80 control
2 | C/C(=N\NC(=N)N)c1cccc(C(=O)N[C@@H](CC(C)C)C(=O)N2CCN(C(=O)[C@H](Cc3ccccc3)NC(=O)c3ccc(OCc4ccccc4)cc3)CC2)c1 [MES 10307] | 38 % of DMSO control | 40 (% of DMSO control 5B)/(% of D | 45 % of DMSO control | 
3 | C/C(=N\NC(=N)N)c1ccc(C(=O)N[C@@H](Cc2ccccc2)C(=O)NCCNC(=O)[C@H](Cc2ccccc2)NC(=O)c2ccc(/C(C)=N/NC(=N)N)cc2)cc1 [MES 10094, (E,E)-Bisguanylhydrazone of 1-[(S)-N-(4-Acetylbenzoyl)-2-amino-3-phenylpro-panoyl]-4-[(S)-N-(4-acetylbenzoyl)-2-amino-3-phenylpropanoyl]-1,4-diaza-butane bis hydrochloride] |  |  |  | effect on luciferase activity in the 5B cell line (luciferase assay), in words (3′ UTR of the TNFα gene): strongly inhibited; effect on luciferase activity in the 3B control cell line, in words [1]: only weakly inhibited; effect on amount of secreted TNFα (direct TNFα secretion assay), in words (TNFα; after LPS stimulation): inhibited TNFα secretion
4 | CC(=NNC(=N)N)c1cccc(C(=O)NC(CC(C)C)C(=O)N2CCN(C(=O)C(Cc3ccc4ccccc4c3)NC(=O)c3ccc(C(=NNC(=N)N)c4ccccc4)cc3)CC2)c1 (mixture of isomers) [MES 10261] | 76 % of DMSO control | 71 (% of DMSO control 5B)/(% of DMSO control 3B) | 40 % of DMSO control | 
5 | C/C(=N\N=C(N)N)c1cccc(C(=O)NCCNC(=O)[C@H](Cc2ccccc2)NC(=O)c2ccc(/C(=N/N=C(N)N)c3ccccc3)cc2)c1.O=C(O)C(F)(F)F.O=C(O)C(F)(F)F [MES 10091, (E,E)-Bisguanylhydrazone of 1-[(S)-N-(4-benzoylbenzoyl)-2-amino-3-phenylpropanoyl]-4-(3-acetylbenzoyl)-1,4-diazabutane bis trifluoroacetate] |  |  |  | Luciferase 5B/3B (% of DMSO control 5B)/(% of DMSO control 3B) (3′ UTR of the TNFα gene; 1 μM compound (Table 11)): 113 (% of DMSO control 5B)/(% of D; Luciferase 5B/3B (% of DMSO control 5B)/(% of DMSO control 3B) (3′ UTR of the TNFα gene; 3 μM compound (Table 11)): 68 (% of DMSO control 5B)/(% of D; Luciferase 5B/3B (% of DMSO control 5B)/(% of DMSO control 3B) (3′ UTR of the TNFα gene; 10 μM compound (Table 11)): 73 (% of DMSO control 5B)/(% of D; TNFα Secretion (% of DMSO control) (TNFα; 1 μM compound (Table 11)): 97 % of DM80 control; TNFα Secretion (% of DMSO control) (TNFα; 3 μM compound (Table 11)): 41 % of DM80 control; TNFα Secretion (% of DMSO control) (TNFα; 10 μM compound (Table 11)): 22 % of DM80 control
6 | C/C(=N\NC(=N)N)c1cccc(C(=O)N[C@@H](CC(C)C)C(=O)N2CCN(C(=O)[C@H](Cc3ccccc3)NCc3ccccc3)CC2)c1 [MES 10241] | 68 % of DMSO control | 90 (% of DMSO control 5B)/(% of D | 100 % of DMSO control | 
7 | CC(C)CC(NC(=O)c1ccc(C(=NNC(=N)N)c2ccccc2)cc1)C(=O)N1CCN(C(=O)C(Cc2ccccc2)NC(=O)c2ccc([N+](=O)[O-])cc2)CC1 (mixture of isomers) [MES 10233] | 36 % of DMSO control | 40 (% of DMSO control 5B)/(% of D | 42 % of DMSO control | 
8 | C/C(=N\NC(=N)N)c1cccc(C(=O)N[C@@H](CC(C)C)C(=O)N2CCN(C(=O)[C@H](Cc3ccccc3)NCc3ccc(-c4ccccc4)cc3)CC2)c1 [MES 10244] | 46 % of DMSO control | 36 (% of DMSO control 5B)/(% of D | 48 % of DMSO control | 
9 | CC(C)CC(NC(=O)c1ccc(C(=NNC(=N)N)c2ccccc2)cc1)C(=O)N1CCN(C(=O)C(Cc2ccc3ccccc3c2)NC(=O)c2ccc(C(=NNC(=N)N)c3ccccc3)cc2)CC1 (mixture of isomers) [MES 10195] | 36 % of DMSO control | 82 (% of DMSO control 5B)/(% of DMSO control 3B) | 33 % of DMSO control | 
